Reference: patent US4263427A, “Monensin urethane derivatives” (priority 1979, dated 1981)
In brackets after ≈: the same amount, converted by molar mass. Counter-ions that a name gives are not always drawn. Like-named read-outs stand apart in the source and are kept apart here.

Key:
Bacillus megaterium 8CU = assay: Minimum Inhibitory Concentration, agarwell diffusion assay (Table 6); format: cell-based; settings: Priestia megaterium, 8CU, read-out: Minimum Inhibitory Concentration, Bacillus megaterium 8CU
Description: (§1) (a) Lowest twofold dilution giving zone of inhibition in the agarwell
(§2) (b) NRRL collection number, all the rest ate ATCC numbers.

Bacillus sp. E 27859 = assay: as above; format: cell-based; settings: Bacillus
Description: as §1, §2

Bacillus sp. TA 27860 = assay: as above; format: cell-based; settings: Bacillus
Description: as §1, §2

Bacillus subtilis 583 = assay: as above; format: cell-based
Description: as §1, §2

MycoBacterium phiel 355 = assay: as above; format: cell-based; settings: Mycobacterium, 355, read-out: Minimum Inhibitory Concentration, MycoBacterium phiel 355
Description: as §1, §2

[1] = test system: Paceilomyces variotl 25820; assay: as above; format: cell-based; settings: read-out: Minimum Inhibitory Concentration, Paceilomyces variotl 25820
Description: as §1, §2

Sarcina lutca 9341 = assay: as above; format: cell-based; settings: Sarcina, 9341, read-out: Minimum Inhibitory Concentration, Sarcina lutca 9341
Description: as §1, §2

Staph. aureus 6538 = assay: as above; format: cell-based; settings: Staphylococcus aureus, 6538, read-out: Minimum Inhibitory Concentration, Staph. aureus 6538
Description: as §1, §2

[2] = test system: Streptococcus cellulosac 3313; assay: as above; format: cell-based; settings: Streptococcus, 3313, read-out: Minimum Inhibitory Concentration, Streptococcus cellulosac 3313
Description: as §1, §2

[3] = test system: Streptococcus faecium 8043; assay: as above; format: cell-based
Description: as §1, §2

Eimeria tenella = assay: Anti-coccidial effect of monensin urethanes added to the feed of infected chickens (Table 7); format: in vivo; settings: infected untreated control 3.0, less than 2.5 significant
Procedure: This test utilizes ten chickens per drug group. Ten chickens are employed as a weight control and ten chickens as an infected control. The drug is given 48 hours in advance of the infection. One gm. of the test drug is mixed in a mechanical mixer with a sufficient amount of chicken feed to result in the desired dosage. The infection consists of approximately 200,000 oocysts given orally by pipette. The tests lasts for eleven days and then the surviving birds are autopsied and examined for gross lesions in the ceca. The test birds are rated according to the number of survivors and the number of cecal lesions. The results are expressed as average degree of infection (A.D.I.). An average degree of infection of less than 2.5 is considered to be significant.

Treponema hyodysenteriae = assay: Activity against Treponema hyodysenteriae (MIC, blood agar plates); format: cell-based; settings: Brachyspira hyodysenteriae, 48 h, 42° C., anaerobic
Description: Testing for activity against Treponema hyodysenteriae, a cause of swine dysentery consisted of inoculation of blood agar plates containing a series of two or fourfold dilutions of the monensin urethane derivatives with tenfold dilutions of the T. hyodysenteriae strain.

Plasmodium berghei = assay: Oral antimalarial activity against Plasmodium berghei in mice; format: in vivo; settings: p.o.
Description: Compounds of formula I wherein R4 is aryl, haloaryl or nitroaryl and their pharmaceutically acceptable salts are orally active as antimalarial agents.

[4] = Oral antihypertensive activity: blood pressure and heart rate (Table 9); format: in vivo
Description: Compounds of formula I, and their pharmaceutically acceptable salts are orally active as antihypertensive agents.

rumen fluid = settings: 50 ppm; control 100
[5] = SP.E27859, Bacillus sp. E 27859, read-out: Minimum Inhibitory Concentration
[6] = SP.TA27860, Bacillus sp. TA 27860, read-out: Minimum Inhibitory Concentration
[7] = Bacillus subtilis, 583, Bacillus subtilis 583 (NRRL), read-out: Minimum Inhibitory Concentration
[8] = Enterococcus faecium, 8043, Streptococcus faecium 8043, read-out: Minimum Inhibitory Concentration

Row | Structure (SMILES) | MIC (Bacillus megaterium 8CU) [µg/mL] | MIC (MycoBacterium phiel 355) [µg/mL] | MIC [1] [µg/mL] | MIC (Sarcina lutca 9341) [µg/mL] | MIC (Staph. aureus 6538) [µg/mL] | MIC [2] [µg/mL] | Average Degree of Infected (A.D.I.) (Eimeria tenella; 125 ppm in feed) | MIC (Treponema hyodysenteriae) [µg/mL] | MIC (Bacillus sp. E 27859; [5]) [µg/mL] | MIC (Bacillus sp. TA 27860; [6]) [µg/mL] | MIC (Bacillus subtilis 583; [7]) [µg/mL] | MIC [3, 8] [µg/mL] | ED50 (Plasmodium berghei) [mg/kg] | Day of Maximum Change, Blood Pressure ([4]; oral dose 1 mg/kg) [days] | Maximum Change (%), Blood Pressure ([4]; oral dose 1 mg/kg) [%] | Mean Blood Pressure at time of maximum effect ([4]; oral dose 1 mg/kg) [mm Hg] | Mean Blood Pressure before treatment ([4]; oral dose 1 mg/kg) [mm Hg] | Average Degree of Infected (A.D.I.) (Eimeria tenella; 75 ppm in feed) | further results
1 | CCC1(C2OC(C3OC(O)(COC(=O)NC4CCCCC4)C(C)CC3C)CC2C)CCC(C2(C)CCC3(CC(O)C(C)C(C(C)C(OC)C(C)C(=O)O)O3)O2)O1 (centres unmarked) [Monensin A, cyclohexylurethane] | 0.4 (≈ 0.502 µM) | 3.1 (≈ 3.89 µM) | 3.1 (≈ 3.89 µM) | 0.8 (≈ 1 µM) | 1.6 (≈ 2.01 µM) | 3.1 (≈ 3.89 µM) | 0.8 | 0.4 (≈ 0.502 µM) | – | – | – | – | – | – | – | – | – | – | MIC (Bacillus sp. E 27859; SP.E27859, read-out: Minimum Inhibitory Concentration, Bacillus sp. E 27859): 0.2 µg/mL (≈ 0.251 µM); MIC (Bacillus sp. TA 27860; SP.TA27860, read-out: Minimum Inhibitory Concentration, Bacillus sp. TA 27860): 0.6 µg/mL (≈ 0.754 µM); MIC (Bacillus subtilis 583; Bacillus subtilis, 583, read-out: Minimum Inhibitory Concentration, Bacillus subtilis 583 (NRRL)): 0.8 µg/mL (≈ 1 µM); MIC ([3]; Enterococcus faecium, 8043, read-out: Minimum Inhibitory Concentration, Streptococcus faecium 8043): 0.1 µg/mL (≈ 0.126 µM)
2 | CCC1(C2OC(C3OC(O)(COC(=O)Nc4ccc(Cl)cc4)C(C)CC3C)CC2C)CCC(C2(C)CCC3(CC(O)C(C)C(C(C)C(OC)C(C)C(=O)O)O3)O2)O1 (centres unmarked) [Monensin A, 4-chlorophenylurethane] | 0.2 (≈ 0.243 µM) | 0.8 (≈ 0.97 µM) | 3.1 (≈ 3.76 µM) | 0.2 (≈ 0.243 µM) | 0.4 (≈ 0.485 µM) | 0.8 (≈ 0.97 µM) | – | 0.08 (≈ 0.097 µM) | 0.02 (≈ 0.0243 µM) | 0.2 (≈ 0.243 µM) | 0.4 (≈ 0.485 µM) | 0.05 (≈ 0.0606 µM) | 2.3 | 5 | 20 | 179 | 224 | – | Average Degree of Infected (A.D.I.) (Eimeria tenella; 65 ppm in feed): 0.8; Day of Maximum Change, Heart Rate ([4]; oral dose 1 mg/kg): 5 days; Maximum Change (%), Heart Rate ([4]; oral dose 1 mg/kg): 19%
3 | CCC1(C2OC(C3OC(O)(COC(=O)Nc4ccc(Br)cc4)C(C)CC3C)CC2C)CCC(C2(C)CCC3(CC(O)C(C)C(C(C)C(OC)C(C)C(=O)O)O3)O2)O1 (centres unmarked) [Monensin A, 4-bromophenylurethane, 4-bromophenylaminocarbonyloxy-(0-11)-monensin, sodium salt] | 0.1 | 1.6 | 1.6 | 0.2 | 0.8 | 0.8 | – | 0.4 | 0.05 | 0.2 | 0.4 | 0.1 | 15 to 20 | 2 | 21 | 178 | 225 | 0.7 | Rate of Gas Production, Percent Production of Control Fermentations (rumen fluid): 103.0%; Total VFA, Percent Production of Control Fermentations (rumen fluid): 89.9%
4 | CCC1(C2OC(C3OC(O)(COC(=O)Nc4ccc(F)cc4)C(C)CC3C)CC2C)CCC(C2(C)CCC3(CC(O)C(C)C(C(C)C(OC)C(C)C(=O)O)O3)O2)O1 (centres unmarked) [Monensin A, 4-fluorophenylurethane] | 0.4 (≈ 0.495 µM) | 3.1 (≈ 3.84 µM) | 3.1 (≈ 3.84 µM) | 0.8 (≈ 0.99 µM) | 1.6 (≈ 1.98 µM) | 3.1 (≈ 3.84 µM) | 1.0 | 0.08 (≈ 0.099 µM) | 0.2 (≈ 0.248 µM) | 0.8 (≈ 0.99 µM) | 0.8 (≈ 0.99 µM) | 0.1 (≈ 0.124 µM) | – | – | – | – | – | – | Day of Maximum Change, Blood Pressure ([4]; oral dose 3 mg/kg): 2 days; Maximum Change (%), Blood Pressure ([4]; oral dose 3 mg/kg): 17%; Mean Blood Pressure at time of maximum effect ([4]; oral dose 3 mg/kg): 182 mm Hg; Mean Blood Pressure before treatment ([4]; oral dose 3 mg/kg): 220 mm Hg
5 | CCC1(C2OC(C3OC(O)(COC(=O)Nc4ccc(C)cc4)C(C)CC3C)CC2C)CCC(C2(C)CCC3(CC(O)C(C)C(C(C)C(OC)C(C)C(=O)O)O3)O2)O1 (centres unmarked) [Monensin A, 4-methylphenylurethane, Monensin A, 4-methyl phenylurethane] | 0.2 (≈ 0.249 µM) | 1.6 (≈ 1.99 µM) | 1.6 (≈ 1.99 µM) | 0.4 (≈ 0.497 µM) | 0.4 (≈ 0.497 µM) | 0.8 (≈ 0.995 µM) | – | – | 0.05 (≈ 0.0622 µM) | 0.2 (≈ 0.249 µM) | 0.4 (≈ 0.497 µM) | 0.2 (≈ 0.249 µM) | – | 3 | 16 | 182 | 217 | 1.1 | Day of Maximum Change, Heart Rate ([4]; oral dose 1 mg/kg): 4 days; Maximum Change (%), Heart Rate ([4]; oral dose 1 mg/kg): 15%
6 | CCC1(C2OC(C3OC(O)(COC(=O)Nc4ccc(I)cc4)C(C)CC3C)CC2C)CCC(C2(C)CCC3(CC(O)C(C)C(C(C)C(OC)C(C)C(=O)O)O3)O2)O1 (centres unmarked) [Monensin A, 4-iodophenylurethane] | – | – | – | – | – | – | 0.1 | – | – | – | – | – | – | – | – | – | – | – | –
7 | CCC1(C2OC(C3OC(O)(COC(=O)Nc4ccccc4)C(C)CC3C)CC2C)CCC(C2(C)CCC3(CC(O)C(C)C(C(C)C(OC)C(C)C(=O)O)O3)O2)O1 (centres unmarked) [Monensin A, phenylurethane] | 0.4 (≈ 0.506 µM) | 3.1 (≈ 3.92 µM) | 3.1 (≈ 3.92 µM) | 0.8 (≈ 1.01 µM) | 0.8 (≈ 1.01 µM) | 3.1 (≈ 3.92 µM) | – | 0.08 to 0.4 (≈ 0.101 to 0.506 µM) | 0.05 (≈ 0.0633 µM) | 0.4 (≈ 0.506 µM) | 0.4 (≈ 0.506 µM) | 0.1 (≈ 0.127 µM) | 4 | – | – | – | – | 0.9 | Day of Maximum Change, Blood Pressure ([4]; oral dose 10 mg/kg): 2 days; Maximum Change (%), Blood Pressure ([4]; oral dose 10 mg/kg): 26%; Mean Blood Pressure at time of maximum effect ([4]; oral dose 10 mg/kg): 170 mm Hg; Mean Blood Pressure before treatment ([4]; oral dose 10 mg/kg): 229 mm Hg
